We go through five molecules from patent US20030170252A1, “Antibody compositions specific for p33QIK and p63Krs1 polypeptides and uses thereof” (priority 2000, published 2003).

One series has as its system NIH3T3 cultures. Kind of series: Cell death in quiescent NIH3T3 cultures. It is filed as cell-based, mouse. The settings on record: quiescent cultures treated with ActD or CHXM for 3 hr.
The target in a further series is p44/42^Erk. It is filed as cell-based, mouse. The settings on record: quiescent NIH3T3 treated with serum or TPA in the presence of ActD or CHXM. How it is done: (§1) Mouse NIH3T3 fibroblast cultures were maintained in Dulbecco's modified Eagle's medium (DMEM)(BRL/GIBCO, Grand Island, N.Y.) supplemented with 5% calf serum, 50 units/ml penicillin, and 5 mcg/ml streptomycin, and cultivated at 37° C.
(§2) Mouse 10T1/2 fibroblast cultures were maintained in Basal medium Eagle (BRL/GIBCO, Grand Island, N.Y.) supplemented with 10% heat-inactivated fetal bovine serum, 50 U/ml penicillin, and 5 μg/ml streptomycin, and cultivated at 37° C. Cells synchronized in quiescent state were growth-arrested by serum starvation for 48 hr. Actinomycin D (ActD), cycloheximide (CHXM), 12-0-tetradecanoylphorbol 13-acetate (TPA), staurosporine (STSP) (Sigma Chemical, St. Louis, Mo.), sodium fluoride (NaF), sodium orthovanadate (Na3VO4) (Fisher Scientific, Pittsburgh, Pa.), and FR901228 (FR)(NCI, Frederick, Md.) were diluted in cultured medium before treatment of cultured cells. A broad range caspase inhibitor Z-Asp-[(2,6-dichlorobenzoyl)oxy]methane (Z-D-CH2-DCB) (Dolle et al., 1994; Mashima et al., 1995)(CALBIOCHEM, La Jolla, Calif.) was dissolved in dimethyl sulfoxide and diluted in cultured medium for treatment. Recombinant human Caspase-3 was purchased from Alexis Biochemicals (San Diego, Calif.). Protein phosphatase 1 (PP1) and Lambda protein phosphatase (λPPase) were purchased from NE BioLabs (Beverly, Mass.). Production of rabbit polyclonal antibody Ab-KQ to p63^Krsl and p33^QIK was made using peptide sequences of Krsl as antigens (Alpha Diagnostic International, San Antonio, Tex.). UV irradiation was carried out using a UV Crosslinker (Stratagene, La Jolla, Calif.).
(§3) Cells were lysed with 30 strokes of a tight-fitting Dounce homogenizer in lysis A buffer (10 mM KH2PO4, 1 mM EDTA, 5 mM EGTA, 10 mM MgCl2, 50 mM […], 1 mM Na3VO4, 2 mM dithiothreitol) (Wang et al., 1992). Cytoplasmic proteins (S20) were isolated from the supernatants after centrifugation of crude lysates at 20,000 ×g for 20 min. Protein concentration in S20 was measured by using the BCA assay (Pierce, Rockford, Ill.). Immunoprecipitation of p33^QIK was carried out by incubation of S20 with the specific antibody Ab-KQ at 0° C. for 1 hr. Immune complexes were adsorbed to Pansorbin (Staphylococcus aureus) (CALBIOCHEM, La Jolla, Calif.) at 0° C. for 30 min and washed with STE buffer (50 mM Tris-HCl, pH 7.0, 150 mM NaCl, 1 mM Na2 EDTA) supplemented with 0.1 mM DTT and 0.1% NP-40 and ST buffer supplemented with 1 mM DTT.
(§4) MBP (BRL/GIBCO, Grand Island, N.Y.) was used as a substrate in the assay and the in-gel kinase assay was performed as previously described (Wang et al., 1992). Briefly, 10% SDS-polyacrylamide gel (SDS-PAG) was copolymerized with 0.4 mg/ml MBP. Cellular proteins were resolved in the MBP-immobilized SDS-PAG, followed by rinsing the gel with 20% isopropanol in buffer B (100 mM Tris, pH 8, 5 mM β-mercaptoethanol). The gel was denatured in buffer B supplemented with 6 M guanidine-HCl and renatured with buffer B supplemented with 0.04% Tween 40 (Kameshita and Fujisawa, 1989). Kinase reaction was carried out by incubating the gel with kinase buffer (20 Mm Tris, pH 7.2, 10 mM MgCl2, 15 mM β-glycerolphosphate) supplemented with 50 μM γATP and 50 μCi of [γ-^32P]ATP at 22° C. for 30 min. The gel was washed with 1% sodium pyrophosphate in 5% trichloroacetic acid. Protein kinases which phosphorylated MBP in the gel were detected by autoradiography of the [γ^32P]-labeled MBP.

The target in series [1] is p33^QIK. Description: In-gel kinase assay (MBP substrate) of p33^QIK activity in treated NIH3T3 cultures. It is filed as cell-based, mouse. To be noted: for TPA-induced deactivation of p33^QIK: quiescent NIH3T3, co-treatment with 100 ng/ml TPA; for serum-induced down-regulation of p33^QIK activity: quiescent NIH3T3, co-treatment with 10% serum. How it is done: as §1, §2, §3, §4

The next series concerns NIH3T3 cells. Kind of series: Flow cytometric analysis of DNA content (cell cycle phase). It is filed as cell-based, mouse. How it is done:
After rinsing with phosphate buffered saline (PBS), cells were trypsinized from culture dishes, rinsed with Ca^++ and Mg^++ free PBS, fixed in 70% cold ethanol, and stained with 10 μg/ml propidium iodide (PI) for 30 min (Darzynkiewicz et al., 1995). Flow cytometry analysis was performed on the Coulter EPICS Elite Cytometer (Hialeah, Fla.) using 15 mW air-cooled argon laser producing 488-nm light in which PI fluorescence light emission is collected with a 610LPDC filter. Extended analysis of DNA content and calculation of the percentage of cells in each phase of the cell cycle were performed on Multicycle software (Phoenix Flow System, San Diego, Calif.).
(In general: A flow cytometer gives signals particle by particle.)

The test system of another series is 33 kDa-MBP kinase. To be noted: MCF-7 and MDA-MB361 cells treated with FR (Rajgolikar et al., 1998); cited from earlier work.
Series [2] deals with p33^QIK. Kind of series: In-gel kinase assay of p33^QIK activity in 10T1/2 cultures. It is filed as cell-based. To be noted: mouse fibroblast 10T1/2 cultures treated with FR. The protocol:
as §2, with “Production of rabbit polyclonal antibody Ab-KQ to p63^Krsl and p33^QIK was made using peptide sequences of Krsl as antigens (Alpha Diagnostic International, San Antonio, Tex.). UV irradiation was carried out using a UV Crosslinker (Stratagene, La Jolla, Calif.).” left out
(§5) MBP (BRL/GIBCO, Grand Island, N.Y.) was used as a substrate in the assay and the in-gel kinase assay was performed as previously described (Wang et al., 1992). […] Protein kinases which phosphorylated MBP in the gel were detected by autoradiography of the [γ^32P]-labeled MBP.

The subject of another series is cells. The settings on record: cited from earlier work.
Another series addresses p63^Krsl. Kind of series: In-gel kinase assay (MBP substrate) of p63^Krsl activity in treated NIH3T3 cultures. It is filed as cell-based, mouse. To be noted: quiescent NIH3T3 cultures, 100 nM STSP, 2 hr. How it is done: as §1
Mouse 10T1/2 fibroblast cultures were maintained in Basal medium Eagle (BRL/GIBCO, Grand Island, N.Y.) supplemented with 10% heat-inactivated fetal bovine serum, 50 U/ml penicillin, and 5 μg/ml streptomycin, and cultivated at 37° C. Cells synchronized in quiescent state were growth-arrested by serum starvation for 48 hr. […]
Cells were lysed with 30 strokes of a tight-fitting Dounce homogenizer in lysis A buffer (10 mM KH2PO4, 1 mM EDTA, 5 mM EGTA, 10 mM MgCl2, 50 mM […], 1 mM Na3VO4, 2 mM dithiothreitol) (Wang et al., 1992). […] Protein concentration in S20 was measured by using the BCA assay (Pierce, Rockford, Ill.). […]
as §5

In the next series the target is T1, Caspase-3 (Homo sapiens, UniProt P42574).
T1 construct: purchased Alexis Biochemicals (San Diego, Calif.)
T1 sequence (P42574 29-175 limits assumed): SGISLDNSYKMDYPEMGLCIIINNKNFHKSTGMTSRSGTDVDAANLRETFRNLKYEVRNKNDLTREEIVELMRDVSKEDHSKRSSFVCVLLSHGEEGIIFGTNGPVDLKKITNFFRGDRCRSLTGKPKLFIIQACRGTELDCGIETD
Kind of series: Inhibition of caspase-3 modification of immune complexes. It is filed as biochemical. To be noted: 5 μM inhibitor, 0.2 μg Caspase-3, 37° C., 30 min. How it is done: Both p63^Krsl and p33^QIK in 10 μg of cytosolic lysates (S20) were immunoprecipitated by Ab-KQ (lanes 2 to 4 and 6 to 8), followed by reatment with 0.2 μg Caspase-3 (C)(lanes 3, 4, 7 and 8) in the presence of 5 μM caspase inhibitor Z-D-CH2-DCB (C+I)(lanes 4 and 8) at 37° C. for 30 min. The kinase activities of p63^Krsl, p35, and p33^QIK in 5 μg of S20 (lanes 1 and 5) and in the immune complexes were determined by the in-gel kinase assay using MBP as a substrate. Bars indicate p63^Krsl p35, and p33^QIK.
Mouse 10T1/2 fibroblast cultures were maintained in Basal medium Eagle (BRL/GIBCO, Grand Island, N.Y.) supplemented with 10% heat-inactivated fetal bovine serum, 50 U/ml penicillin, and 5 μg/ml streptomycin, and cultivated at 37° C. Cells synchronized in quiescent state were growth-arrested by serum starvation for 48 hr. Actinomycin D (ActD), cycloheximide (CHXM), 12-0-tetradecanoylphorbol 13-acetate (TPA), staurosporine (STSP) (Sigma Chemical, St. Louis, Mo.), sodium fluoride (NaF), sodium orthovanadate (Na3VO4) (Fisher Scientific, Pittsburgh, Pa.), and FR901228 (FR)(NCI, Frederick, Md.) were diluted in cultured medium before treatment of cultured cells. […]

The mark [3] stands for this setting: quiescent NIH3T3, absence of serum, 5 μg/ml ActD or 10 μg/ml CHXM, 1 or 3 hr.
Where [4] appears, read: 5 μg/ml ActD or 10 μg/ml CHXM, 1 or 3 hr.
The mark [5] stands for this setting: proliferating NIH3T3 cultures, 5 nM FR, 24 hr.
Where [6] appears, read: NIH3T3 synchronized by serum starvation, 18 hr serum, then 10 nM STSP for 24 hr.

The structures appear in SMILES notation. Starred links: 1 amine or outer side, 2 acyl side, 3 side chain; linkers in the order of their positions; H or OH if unused. Positions of bridges follow the written chain, without caps; N, C: chain ends. Non-standard residues stand in square brackets, D forms with d. Residues, ends and D or L forms follow the SMILES beside them. Chains are numbered I, II in the order given. Actinocin(9to1) = Cc1c2oc3c(C)ccc(C(=O)[*:1])c3nc-2c(C(=O)[*:2])c(N)c1=O; NMeV = CN[C@H](C(=O)O)C(C)C; Sar = CNCC(=O)O

For `Cc1c2oc3c(C)ccc(C(=O)N[C@@H]4C(=O)N[C@H](C(C)C)C(=O)N5CCC[C@H]5C(=O)N(C)CC(=O)N(C)[C@@H](C(C)C)C(=O)O[C@@H]4C)c3nc-2c(C(=O)N[C@@H]2C(=O)N[C@H](C(C)C)C(=O)N3CCC[C@H]3C(=O)N(C)CC(=O)N(C)[C@@H](C(C)C)C(=O)O[C@@H]2C)c(N)c1=O` [ActD, Actinomycin D] (I: T[dV]P[Sar][NMeV] / II: T[dV]P[Sar][NMeV]; ester I:1-I:C, II:1-II:C; linker I:N-II:N via Actinocin(9to1)), the cell death result in the series on NIH3T3 cultures is on record as “extensive cell death occurred”. Further, the “kinase activity of p44/42^Erk” value at p44/42^Erk is “constant activation of p44/42^Erk”. At p33^QIK [1] (setting [3]), the “kinase activity of p33^QIK” value was “significant increases of p33^QIK activity”. In the series with p33^QIK [1] (setting [4]), the “TPA-induced deactivation of p33^QIK” value is listed as “blockage of the TPA-induced deactivation of p33^QIK but also in an increase in the kinase activity of p33^QIK” and the “serum-induced down-regulation of p33^QIK activity” value was “blocked the serum-induced down-regulation of p33^QIK activity”.

On to `C[C@@H]1C[C@@H]([C@H](O)CC2CC(=O)NC(=O)C2)C(=O)[C@@H](C)C1` [CHXM, cycloheximide], for which the cell death result in the series with NIH3T3 cultures is “extensive cell death occurred”. Moreover, the “kinase activity of p44/42^Erk” value at p44/42^Erk is “constant activation of p44/42^Erk”. Also, at p33^QIK [1] (setting [3]), the “kinase activity of p33^QIK” value was “significant increases of p33^QIK activity”. Also, in the series on p33^QIK [1] (setting [4]), the “TPA-induced deactivation of p33^QIK” value is on record as “blockage of the TPA-induced deactivation of p33^QIK but also in an increase in the kinase activity of p33^QIK” and the “serum-induced down-regulation of p33^QIK activity” value is reported as “blocked the serum-induced down-regulation of p33^QIK activity”.

For the molecule `C/C=C1\NC(=O)[C@H]2CSSCC/C=C/[C@H](CC(=O)N[C@H](C(C)C)C(=O)N2)OC(=O)[C@H](C(C)C)NC1=O` [FR, FR901228], the “cell population in each phase of the cell cycle” value with NIH3T3 cells (setting [5]) is given as “growth arrest of cells in G0/G1 phase was evident”. Moreover, the entries for the “kinase activity of p33^QIK” value at p33^QIK [1] (setting [5]) and at p33^QIK [2] were “p33^QIK activity was induced” and “Activation of p33^QIK was also detected”, respectively. In the series with 33 kDa-MBP kinase, the “33 kDa-MBP kinase activity” value is “induction of a 33 kDa-MBP kinase activity”.

Regarding `CN[C@@H]1C[C@H]2O[C@@](C)([C@@H]1OC)n1c3ccccc3c3c4c(c5c6ccccc6n2c5c31)C(=O)NC4` [STSP, staurosporine], the “cell population in each phase of the cell cycle” value with NIH3T3 cells (setting [6]) is listed as “a major population of cells was arrested in G0/G1 state”. In the series with cells (high concentration), the “concentration arresting cells in G2 phase” value was 100 to 150 nM. Also, the “concentration arresting cells in early G1 phase” value in the series on cells (low concentration) was 2 to 20 nM. In addition, on p33^QIK [1] (setting [6]), the “kinase activity of p33^QIK” value is given as “activation of p33^QIK was detected”. Further, the “kinase activity of p63^Krsl” value on p63^Krsl is given as “activated p63^Krsl”.

Take `O=C(O)CC(NC(=O)OCc1ccccc1)C(=O)COC(=O)c1c(Cl)cccc1Cl` [Z-D-CH2-DCB, Z-Asp-[(2,6-dichlorobenzoyl)oxy]methane]: the “induction of p33^QIK activity” value with p33^QIK [1] (cultures preincubated with caspase inhibitor prior to serum starvation and osmotic stress) was “neither blocked induction of p33^QIK activity”. The “blockage of caspase-3 induced changes in p63^Krsl, p35 and p33^QIK activity” value on Caspase-3 was “completely blocked”.
